In patent US20230138395A1, “PHARMACEUTICAL COMPOSITIONS OF A THERAPEUTIC POLYENE MACROLIDE AND METHODS OF THEIR USE” (priority 2020, published 2023):
Converted amounts (≈) assume the structure as drawn. “And” between values parts separate entries of the source, which are not always exact repeats. Identical values can stand only once.

What was measured:
[1] = tested on: individual Aspergillus spp. (Table 13, species not given); assay: MIC testing (CLSI M38-A2), Table 13; format: cell-based; details: Aspergillus sp. of Table 13, caspofungin read as MEC
[2] = tested on: Candida albicans; assay: MFC determination; format: cell-based
[3] = tested on: all Aspergillus strains tested; assay: MIC testing (CLSI M38-A2), summary; format: cell-based; details: caspofungin read as MEC
[4] = tested on: Blastomyces dermatitidis, Coccidioides immitis, and Histoplasma capsulatum strains; format: cell-based; details: dimorphic fungal isolates; in µg/mL
[5] = tested on: Fusarium strains; assay: MIC testing (CLSI M38-A2), Table 17; format: cell-based, Fusarium spp.; details: Fusarium strains (Table 17)
[6] = tested on: individual Aspergillus spp. (Table 12, species not named); assay: MFC determination, Table 12; format: cell-based; details: Aspergillus sp. of Table 12
[7] = tested on: all Candida strains; assay: MFC determination, summary; format: cell-based
[8] = tested on: Fusarium strains (Table 18); assay: MIC testing (CLSI M38-A2), Table 18; format: cell-based, Fusarium spp.
[9] = tested on: Penicillium strains; assay: MIC testing (CLSI M38-A2); format: cell-based, Penicillium spp.; details: Penicillium
[10] = tested on: individual Aspergillus spp. (Table 15, species not named); assay: MIC testing (CLSI M38-A2), Table 15; format: cell-based; details: Aspergillus sp. of Table 15, caspofungin read as MEC
[11] = tested on: C. tropicalis; assay: MFC determination; format: cell-based
[12] = tested on: C. glabrata strains; assay: MIC testing (CLSI M27-A3); format: cell-based; parameters: MIC: unit not given beside the values
[13] = tested on: A. fumigatus AF91; assay: In vitro activity (MIC) against the infecting strain, Example 17; format: cell-based, Aspergillus fumigatus; details: Aspergillus fumigatus, read-out: MIC
Description: Minimum Inhibitory Concentration: MIC testing was performed according to the Clinical and Laboratory Standards Institute (CLSI) M27-A3 and M38-A2 standards for the susceptibility testing of yeasts and filamentous fungi, respectively (Cryptococcus isolates were incubated for 72 h). For yeast strains, the incubation temperature and time were 35° C. and 24-48 h, respectively, and the inoculum size was 0.5-2.5×10^3 CFU/ml. For filamentous strains, the inoculum size was 0.4-5×10^4 CFU/ml, and the incubation time was strain and drug specific. RPMI 1640 was the test medium throughout, with the exception of the use of YNB for Cryptococcus. Inhibition endpoints for compound 1A were recorded at 50% and 100% after both 24 h and 48 h incubation; caspofungin results against Aspergillus strains were read as minimum effective concentrations (MEC), the lowest concentration that leads to small, rounded, compact growth as compared to the confluent growth of the control.

[14] = tested on: C. albicans SC5314; assay: In vitro activity (MIC) against the infecting strain, Example 18; format: cell-based, Candida albicans; details: Candida albicans, read-out: MIC
[15] = tested on: individual Aspergillus spp. (Table 12, species not named); assay: MIC testing (CLSI M38-A2), Table 12; format: cell-based; details: Aspergillus sp. of Table 12, caspofungin read as MEC
[16] = tested on: all Candida strains; assay: MIC testing (CLSI M27-A3), summary; format: cell-based
[17] = tested on: individual Aspergillus spp. (Table 14, species not named); assay: MFC determination, Table 14; format: cell-based; details: Aspergillus sp. of Table 14
[18] = tested on: Candida albicans; assay: MIC testing (CLSI M27-A3); format: cell-based; parameters: MIC: unit not given beside the values
[19] = tested on: C. parapsilosis; assay: MIC testing (CLSI M27-A3); format: cell-based; parameters: MIC: unit not given beside the values
[20] = tested on: C. glabrata strains; assay: MFC determination; format: cell-based; parameters: MFC: unit not given beside the values
[21] = tested on: C. krusei strains; assay: MIC testing (CLSI M27-A3); format: cell-based
[22] = tested on: C. tropicalis; assay: MIC testing (CLSI M27-A3); format: cell-based
[23] = tested on: individual Aspergillus spp. (Table 14, species not named); assay: MIC testing (CLSI M38-A2), Table 14; format: cell-based; details: Aspergillus sp. of Table 14, caspofungin read as MEC
[24] = tested on: all Aspergillus strains tested; assay: MFC determination, summary; format: cell-based
[25] = tested on: Cr. neoformans strains; assay: MIC testing (CLSI M27-A3, YNB, 72 h); format: cell-based, Cryptococcus neoformans
[26] = Fluconazole-susceptible C. albicans n = 13, in µg/mL
[27] = C. tropicalis strains, in µg/mL

For `C[C@@H](c1ncncc1F)[C@](O)(Cn1cncn1)c1ccc(F)cc1F` [Voriconazole, voriconazole], the “MIC Range” value ([1]; in µg/mL) was 0.25-2, the MIC50 ([1]; inhibits 50% of strains) was 0.5 µg/mL (≈ 1.43 µM) and the MIC90 ([1]; inhibits 90% of strains) was 1 µg/mL (≈ 2.86 µM). The “MFC Range” value [2, 26] was over 32, the MFC50 ([2]; Fluconazole-susceptible C. albicans n = 13, kills 50% of strains) was over 32 µg/mL and the MFC90 ([2]; Fluconazole-susceptible C. albicans n = 13, kills 90% of strains) was over 32 µg/mL. For the same compound, the MFC ([2]; individual C. albicans strain with elevated MICs to non-polyene comparators (Table 22), listed as Vor) was 16 and >32 (2×), the “MIC Range” value ([3]; in µg/mL) was 0.06-8 and the MIC50 ([3]; inhibits 50% of strains) was 0.5 µg/mL (≈ 1.43 µM). For the same compound, the MIC90 ([3]; inhibits 90% of strains) was 2 µg/mL (≈ 5.73 µM), the “MIC Range” value [4] was <0.03-0.125 and the MIC50 ([5]; inhibits 50% of strains) was 16 µg/mL (≈ 45.8 µM). The MIC90 ([5]; inhibits 90% of strains) was over 32 µg/mL, the MFC50 ([6]; kills 50% of strains) was 4 µg/mL (≈ 11.5 µM) and the MFC90 ([6]; kills 90% of strains) was over 16 µg/mL. It also gave an MFC50 ([7]; kills 50% of strains) of over 32 µg/mL, an MFC90 ([7]; kills 90% of strains) of over 32 µg/mL and an MIC50 ([8]; inhibits 50% of strains) of 16 µg/mL (≈ 45.8 µM). The MIC90 ([8]; inhibits 90% of strains) was over 16 µg/mL, the MIC50 ([9]; inhibits 50% of strains) was 4 µg/mL (≈ 11.5 µM) and the MIC90 ([9]; inhibits 90% of strains) was over 32 µg/mL. For the same compound, the “MIC Range” value ([10]; in µg/mL) was 0.25-2, the MIC50 ([10]; inhibits 50% of strains) was 0.5 µg/mL (≈ 1.43 µM) and the MIC90 ([10]; inhibits 90% of strains) was 0.5 µg/mL (≈ 1.43 µM). The “MFC Range” value [11, 27] was over 32, the MFC50 ([11]; C. tropicalis, kills 50% of strains) was over 32 µg/mL and the MFC90 ([11]; C. tropicalis, kills 90% of strains) was over 32 µg/mL. For the same compound, the MIC50 ([12]; C. glabrata, inhibits 50% of strains) was 0.25 µg/mL (≈ 0.716 µM), the MIC90 ([12]; C. glabrata, inhibits 90% of strains) was 4 µg/mL (≈ 11.5 µM) and the MIC ([12]; individual C. glabrata strain with elevated MICs to non-polyene comparators (Table 22), listed as Vor) was 1 (3×) and >32 and 0.25 and 2. For the same compound, the MIC [13] was 1 µg/mL (≈ 2.86 µM), the MIC [14] was 0.008 µg/mL (≈ 0.0229 µM) and the “MIC Range” value ([15]; in µg/mL) was 0.25-4. For the same compound, the MIC50 ([15]; inhibits 50% of strains) was 1 µg/mL (≈ 2.86 µM), the MIC90 ([15]; inhibits 90% of strains) was 2 µg/mL (≈ 5.73 µM) and the MIC50 ([16]; inhibits 50% of strains) was 0.06 µg/mL (≈ 0.172 µM). The MIC90 ([16]; inhibits 90% of strains) was 1 µg/mL (≈ 2.86 µM), the MFC50 ([17]; kills 50% of strains) was over 8 µg/mL and the MFC90 ([17]; kills 90% of strains) was over 8 µg/mL. For the same compound, the “MIC Range” value [18, 26] was <0.06-0.06, the MIC50 ([18]; Fluconazole-susceptible C. albicans n = 13, inhibits 50% of strains) was 0.6 µg/mL (≈ 1.72 µM) and the MIC90 ([18]; Fluconazole-susceptible C. albicans n = 13, inhibits 90% of strains) was 0.06 µg/mL (≈ 0.172 µM). The MIC ([18]; individual C. albicans strain with elevated MICs to non-polyene comparators (Table 22), listed as Vor, in µg/mL) was >0.06 and 0.5 and 32, the MIC50 ([19]; C. parapsilosis, inhibits 50% of strains) was under 0.06 µg/mL and the MIC90 ([19]; C. parapsilosis, inhibits 90% of strains) was 0.06 µg/mL (≈ 0.172 µM). For the same compound, the MIC ([19]; individual C. parapsilosis strain with elevated MICs to non-polyene comparators (Table 22), listed as Vor) was 0.06 (2×) and >32, the “MFC Range” value ([20]; C. glabrata strains, in µg/mL) was over 32 and the MFC50 ([20]; C. glabrata, kills 50% of strains) was over 32 µg/mL. The MFC90 ([20]; C. glabrata, kills 90% of strains) was over 32 µg/mL, the MFC ([20]; individual C. glabrata strain with elevated MICs to non-polyene comparators (Table 22), in µg/mL) was over 32 and the “MIC Range” value ([21]; C. krusei strains, in µg/mL) was <0.06-0.5. The MIC50 ([21]; C. krusei, inhibits 50% of strains) was 0.125 µg/mL (≈ 0.358 µM), the MIC90 ([21]; C. krusei, inhibits 90% of strains) was 0.25 µg/mL (≈ 0.716 µM) and the “MIC Range” value [22, 27] was <0.06-1. The MIC50 ([22]; C. tropicalis, inhibits 50% of strains) was 0.06 µg/mL (≈ 0.172 µM), the MIC90 ([22]; C. tropicalis, inhibits 90% of strains) was 0.06 µg/mL (≈ 0.172 µM) and the “MIC Range” value ([23]; in µg/mL) was 0.06-8. It also gave an MIC50 ([23]; inhibits 50% of strains) of 1 µg/mL (≈ 2.86 µM), an MIC90 ([23]; inhibits 90% of strains) of 4 µg/mL (≈ 11.5 µM) and an MFC50 ([24]; kills 50% of strains) of over 8 µg/mL. The MFC90 ([24]; kills 90% of strains) was over 8 µg/mL, the “MIC Range” value ([25]; Cr. neoformans strains, 72 h, in µg/mL) was <0.06-0.25 and the MIC50 ([25]; Cr. neoformans, inhibits 50% of strains) was under 0.06 µg/mL. The MIC90 ([25]; Cr. neoformans, inhibits 90% of strains) was 0.125 µg/mL (≈ 0.358 µM).
